From patent publication US11839698B2, “Drug composition and coating” (priority 2014, dated 2023)
Structures can show the parent of a compound that is named as a salt.

Key:
[1] = in acetone, ethanol and aqueous mixtures thereof
Excerpt: As discussed in further detail below, coatings of the invention can be prepared by pipetting a solution containing therapeutic agent and excipient onto the device to be coated. […] Thus, in one embodiment the organic additive is not thiamine-HCl.

[2] = Early experiments on stability of organic additive in solution; format: physicochemical
Excerpt: Thus, vanillin is not suitable as an organic additive for the present invention.

[3] = Test Method D: stability to ethylene oxide sterilization (paclitaxel recovery by UPLC); format: physicochemical; conditions: additive formulated with paclitaxel as solid coating
Description: A sample of a composition of the invention or a coated device of the invention was placed in a breathable polyethylene pouch (e.g. a Tyvek pouch) and subjected to at least 12 hours preconditioning at 43° C. and 65% relative humidity followed by 12 hours exposure to 600 mg/L ethylene oxide at 52° F. and 25% relative humidity. The chamber was then aerated at 32° F. for at least 12 hours until ethylene oxide concentration was less than 0.25 ppm.
After sterilization, the paclitaxel content on the device or the paclitaxel content of the composition was assessed (through device extraction for coated medical devices i.e. immersion of the whole device in an extraction solvent) using UPLC quantification as described in the evaluation methods section. For each device or composition, the percentage drug recovery after sterilization was calculated by normalizing the extracted paclitaxel amount by the theoretical paclitaxel amount loaded on the device, or present in the composition pre-sterilization.
Approximately 30 mg of excipient was weighed into a 7 mL glass vial and 6 mL of 75/25 v/v acetone/water was added. A small stirrer bar was added to each vial and all samples were stirred overnight at room temperature to ensure full dissolution. […] Percent paclitaxel recovery was calculated by normalizing to either theoretical initial loading or pre-sterilized samples.

| Compound | effect of additive on paclitaxel under ethylene oxide sterilization [3] | other results |
| --- | --- | --- |
| Cc1ncc(C[n+]2csc(CCO)c2C)c(N)n1 [thiamine-HCl] | – | solubility of additive [1]: poor solubility |
| COc1cc(C=O)ccc1O [vanillin] | – | stability of additive in solution [2]: easily degraded in solution |
| NC(=O)c1cccnc1 [niacinamide] | nearly complete paclitaxel degradation | – |
| O=C([O-])c1ccccc1O.[Na+] [sodium salicylate] | cause degradation of the paclitaxel | – |
